Experimental findings from US7981903B2, “2-[2-{phenylamino}-1H-pyrrolo[2,3-D]pyrimidin-4-yl)amino] benzamide derivatives as IGF-1R inhibitors for the treatment of cancer” (GlaxoSmithKline LLC, priority 2007, dated 2011) are described below.

Assay [1] has as its target T1, NIH-3T3 cells overexpressing human IGF-1R (Homo sapiens, UniProt P08069).
T1 construct: expressed in transfected cells; host or cells: NIH-3T3 (mouse fibroblasts)
Description: IGF-1R cellular autophosphorylation (DELFIA). The class given is cell-based. As to the method:
NIH-3T3 cells overexpressing human IGF-1R or IR were plated in 96-well plates (10,000 cells/well) in culture media containing 10% fetal bovine serum and incubated at 37° C. in a 5% CO2 incubator. Twenty four hours post-plating, cells were treated with different concentrations of test compounds ranging from 30 uM to 1.5 nM. Two hours after compound addition, cells were stimulated with either human IGF-1 (30 ng/ml) or insulin (3 ug/ml) for 15 minutes. Cell lysates are analyzed for phosphorylated receptors using dissociation enhanced lanthanide fluor-immuno assay (DELFIA) with anti-IGF-1R (MAB391, R&D Systems, Minneapolis, Minn.) or anti-IRβ (sc-711, Santa Cruz Biotechnology, Santa Cruz, Calif.) capture antibody and europium-labeled anti-pTyr antibody (Eu-N1 PT66, Perkin Elmer, Waltham, Mass.) for detection. The fluorescence signal for cells treated with compounds was expressed as percent relative to 100% stimulation (IGF-1 or insulin stimulated signal).

For another assay, the target named is ALK (Homo sapiens, UniProt Q9UM73). Description: ALK enzyme assay (HTRF). The class given is biochemical. The settings on record: 0.25 nM ALK, 15.0 μM ATP, values given as pIC50 category. The procedure: The method measures the ability of the isolated enzyme to catalyse the transfer of the gamma-phosphate from ATP onto the tyrosine residue of a biotinylated synthetic peptide. The extent of tyrosine phosphorylation was measured using an anti-phosphotyrosine antibody, and quantified by homogenous time-resolved fluorescence (HTRF) assay purchased from CisBio (62TK0PEJ).
ALK, sequence (Q9UM73 19-1620): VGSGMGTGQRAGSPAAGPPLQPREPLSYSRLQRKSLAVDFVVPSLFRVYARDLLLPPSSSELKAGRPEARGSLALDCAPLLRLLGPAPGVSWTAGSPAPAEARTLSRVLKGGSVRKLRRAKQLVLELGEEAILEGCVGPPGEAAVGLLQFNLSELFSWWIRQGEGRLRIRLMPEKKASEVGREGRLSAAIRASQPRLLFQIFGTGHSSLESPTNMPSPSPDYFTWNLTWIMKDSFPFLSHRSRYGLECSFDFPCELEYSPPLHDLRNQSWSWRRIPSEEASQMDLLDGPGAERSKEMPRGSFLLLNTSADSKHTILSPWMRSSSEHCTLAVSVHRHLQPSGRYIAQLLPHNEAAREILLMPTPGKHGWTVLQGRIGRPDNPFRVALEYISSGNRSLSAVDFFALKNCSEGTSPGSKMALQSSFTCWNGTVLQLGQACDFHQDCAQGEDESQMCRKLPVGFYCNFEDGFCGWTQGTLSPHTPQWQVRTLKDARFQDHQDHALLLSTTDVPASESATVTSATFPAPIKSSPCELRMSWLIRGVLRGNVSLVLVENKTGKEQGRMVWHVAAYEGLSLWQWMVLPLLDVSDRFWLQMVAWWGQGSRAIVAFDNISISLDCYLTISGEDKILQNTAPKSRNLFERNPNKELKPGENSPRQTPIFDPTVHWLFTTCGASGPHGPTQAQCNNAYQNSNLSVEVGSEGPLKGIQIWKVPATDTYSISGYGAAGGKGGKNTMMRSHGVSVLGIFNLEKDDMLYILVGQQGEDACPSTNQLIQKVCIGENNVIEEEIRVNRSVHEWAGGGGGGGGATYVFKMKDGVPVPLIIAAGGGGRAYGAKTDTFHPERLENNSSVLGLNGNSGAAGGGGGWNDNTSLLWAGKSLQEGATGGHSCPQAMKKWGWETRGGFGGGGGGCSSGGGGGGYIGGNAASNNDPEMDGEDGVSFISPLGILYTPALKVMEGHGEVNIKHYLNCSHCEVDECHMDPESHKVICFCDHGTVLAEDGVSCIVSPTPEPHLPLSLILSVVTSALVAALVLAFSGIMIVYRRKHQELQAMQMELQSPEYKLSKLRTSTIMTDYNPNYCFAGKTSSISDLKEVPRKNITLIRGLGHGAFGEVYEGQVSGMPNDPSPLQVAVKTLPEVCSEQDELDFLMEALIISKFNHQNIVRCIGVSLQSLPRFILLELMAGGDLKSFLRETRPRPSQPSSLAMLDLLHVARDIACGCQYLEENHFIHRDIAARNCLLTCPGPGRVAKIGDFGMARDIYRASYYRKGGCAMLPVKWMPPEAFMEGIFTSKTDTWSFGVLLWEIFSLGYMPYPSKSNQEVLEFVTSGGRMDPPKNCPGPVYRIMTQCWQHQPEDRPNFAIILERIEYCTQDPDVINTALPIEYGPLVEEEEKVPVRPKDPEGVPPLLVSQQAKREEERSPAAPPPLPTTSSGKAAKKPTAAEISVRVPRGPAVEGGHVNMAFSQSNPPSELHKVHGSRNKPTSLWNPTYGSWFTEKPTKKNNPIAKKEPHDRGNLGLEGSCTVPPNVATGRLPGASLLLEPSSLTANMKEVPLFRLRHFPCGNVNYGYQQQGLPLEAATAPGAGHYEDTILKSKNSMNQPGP
Reactions were performed in black 384-well polystyrene low volume plates in a final volume of 5 μl.
The reactions were then started by adding the substrate mix. The reactions were allowed to proceed for 120 minutes at 20° C. The reactions were then terminated by the addition of 5 μl HTRF detection mix to each well. The final concentrations of the detection reagents were: 50 mM HEPES (pH7.0); 0.1% BSA; 0.8 M KF; 20 mM EDTA; 1 mM CHAPS; TK-antibody Europium Cryptate; and 41 nM streptavidin-XL665. Assay plates were left unsealed, stacked and incubated at 20° for 60 minutes. Quantification of activity was achieved by counting in an Envision Counter (PerkinElmer).
Compounds under analysis were dissolved in Me2SO to 1.0 mM and serially diluted 1 to 3 with Me2SO through twelve dilutions. 0.05 μl of each concentration was transferred to the corresponding well of an assay plate. This creates a final compound concentration range from 0.00017 to 10 μM.
The data for dose responses were plotted as % Inhibition calculated with the data reduction formula 100*(1-(U1-C2)/(C1-C2)) versus concentration of compound where U is the unknown value, C1 is the average control value obtained for 1% DMSO, and C2 is the average control value obtained for 0.1 M EDTA. Data were fitted with a curve described by:
[formula] where A is the minimum y, B is the maximum y concentration [M], D is the slope factor, and x is the log10 of the compound.

The target of another assay is T2, human IR (hIR) (Homo sapiens, UniProt P06213).
T2 construct: containing amino acid residues 979-1382 of human IR; made in house; host or cells: Sf9 cells (baculovirus), same process as hIGF1R
T2 sequence (P06213 979-1382): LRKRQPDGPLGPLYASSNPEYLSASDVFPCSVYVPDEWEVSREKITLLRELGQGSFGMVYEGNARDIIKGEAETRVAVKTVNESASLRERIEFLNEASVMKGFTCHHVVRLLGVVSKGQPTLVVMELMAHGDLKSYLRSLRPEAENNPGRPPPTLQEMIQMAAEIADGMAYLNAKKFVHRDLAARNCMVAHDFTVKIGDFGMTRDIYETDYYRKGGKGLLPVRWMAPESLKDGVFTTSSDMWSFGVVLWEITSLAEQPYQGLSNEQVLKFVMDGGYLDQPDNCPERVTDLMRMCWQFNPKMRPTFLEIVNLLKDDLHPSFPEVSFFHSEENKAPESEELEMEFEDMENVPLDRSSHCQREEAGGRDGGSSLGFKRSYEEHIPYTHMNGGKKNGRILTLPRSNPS
Description: TR-FRET kinase assay of purified hIR. In kind it is biochemical. To be noted: activated hIR 0.5 nM, 10 μM ATP, values given as pIC50 category. The procedure: (§1) Time Resolved Fluorescence Resonance Energy Transfer (TR-FRET) assays were carried out on the exemplified compounds as follows:
(§2) Purity is determined by HPLC. The calculated molecular mass of the peptide is 2216 dalton. Tyrosine phosphorylation by human IGF1R (hIGF1R) or human IR (hIR) occurs as indicated (Y*) in the peptide sequence described. Solid peptide sample is dissolved to approximately 1 mM in DMSO, aliquoted, and stored at −20° C. until use. True peptide concentration is determined by amino acid analysis.
hIR: GST-rTEV-IR(979-1382) containing amino acid residues 979-1382 of human IR (as annotated by NCBI accession number NP_000199) is expressed and purified by the same process as hIGF1R. […] Samples, in 25 mM Tris-HCl, 250 mM NaCl, 5% glycerol, 1 mM DTT, pH 7.5, are stored at −80° C. until use.
hIR: Activation of GST-rTEV-IGF-1R(957-1367) is achieved by a 5 minute incubation of hIR (2.7 μM final) with 2 mM ATP in 100 mM HEPES, 10 mM MgCL2, 0.1 mg/ml BSA, at room temperature. Autophosphorylation is stopped by addition of EDTA (to 100 mM final). Aliquoted samples are flash frozen in liquid nitrogen and stored at −80° C. until use.
(§3) Assays are performed in 384-well (Greiner, Catalog No. 784076) microtiter plates. Reaction buffer (50 mM HEPES buffer, pH 7.5; 10 mM MgCL2; 3 mM DTT; 1 mM CHAPS; 0.1 mg/ml BSA) for peptide phosphorylation (10 μl volume) contained, in final concentrations, 500 nM biotinylated peptide substrate; 10 μM ATP; and purified, activated hIGF1R or hIR (0.5 nM). Compounds, titrated in DMSO, are evaluated at eleven concentrations ranging from 50 μM to 0.2 nM. […] Reactions are incubated for 1 hour at room temperature and are stopped by a 5 μl addition of EDTA (to 33 mM). A further addition of 5 μl detection reagents (for final 7 nM Streptavidin-APC (Perkin Elmer #CR^130-150), 1 nM Europium-labeled anti-phosphotyrosine monoclonal antibody (PerkinElmer #AD0067), added in reaction buffer (without DTT), is required for signal generation. After 30 minutes, signal is read on PerkinElmer Viewlux microplate imager or Wallac Victor fluorometer.
(§4) The data for compound concentration responses were plotted as % Inhibition, calculated with the data reduction formula 100*(1-[(U1-C2)/(C1-C2)]), versus concentration of compound, where • U is the unknown value, • C1 is the average control value obtained for DMSO only, and • C2 is the average control value obtained for reactions stopped with EDTA at • t=0.
(§5) Data were fitted to the curve described by: y=((Vmax*x)/(K+x)) where • Vmax is the upper asymptote and • K is the IC50.

The target in a further assay is T3, human IGF1R (hIGF1R) (Homo sapiens, UniProt P08069).
T3 construct: containing amino acid residues 957-1367 of human IGF1R; made in house; host or cells: Sf9 cells (baculovirus)
T3 sequence (P08069 957-1367): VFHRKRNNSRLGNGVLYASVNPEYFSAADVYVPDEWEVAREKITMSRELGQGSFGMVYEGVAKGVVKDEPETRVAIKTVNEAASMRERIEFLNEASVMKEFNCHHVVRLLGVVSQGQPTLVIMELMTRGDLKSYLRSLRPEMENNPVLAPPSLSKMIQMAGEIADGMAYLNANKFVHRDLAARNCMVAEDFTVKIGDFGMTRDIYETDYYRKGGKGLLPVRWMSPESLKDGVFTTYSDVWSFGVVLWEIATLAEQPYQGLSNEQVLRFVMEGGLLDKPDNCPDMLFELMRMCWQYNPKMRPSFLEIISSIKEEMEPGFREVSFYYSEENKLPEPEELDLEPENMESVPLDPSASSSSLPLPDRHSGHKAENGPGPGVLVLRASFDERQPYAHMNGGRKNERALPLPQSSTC
Description: TR-FRET kinase assay of purified hIGF1R. The class given is biochemical. To be noted: activated hIGF1R 0.5 nM, 10 μM ATP, values given as pIC50 category, read-out: IGF-1R pIC50 (converted). As to the method: as §1, §2
hIGF1R: GST-rTEV-IGF-1R(957-1367) containing amino acid residues 957-1367 of human IGF1R (as annotated by National Center for Biotechnology Information (NCBI) accession number NP_000866) is purified from a baculovirus expression system in Sf9 cells using Glutathione Sepharose 4FF column chromatography followed by Sephadex-200 size exclusion column chromatography. […] Samples, in 25 mM Tris-HCl, 250 mM NaCl, 5% glycerol, 1 mM DTT, pH 7.5, are stored at −80° C. until use.
hIGF1R: Activation of GST-rTEV-IGF-1R(957-1367) is achieved by a 4 minute incubation of hIGF1R (2.7 μM final) with 2 mM ATP in 50 mM HEPES, 20 mM MgCL2, 0.1 mg/ml BSA, at room temperature. Autophosphorylation is stopped by addition of EDTA (to 100 mM final). Aliquoted samples are flash frozen in liquid nitrogen and stored at −80° C. until use.
as §3, §4, §5

Structures are written as SMILES. Values joined by “and” are separate entries in the source; they are usually repeats but may differ in a detail not shown here. Equal entries are not always repeated.

T1 sequence (P08069 31-1367): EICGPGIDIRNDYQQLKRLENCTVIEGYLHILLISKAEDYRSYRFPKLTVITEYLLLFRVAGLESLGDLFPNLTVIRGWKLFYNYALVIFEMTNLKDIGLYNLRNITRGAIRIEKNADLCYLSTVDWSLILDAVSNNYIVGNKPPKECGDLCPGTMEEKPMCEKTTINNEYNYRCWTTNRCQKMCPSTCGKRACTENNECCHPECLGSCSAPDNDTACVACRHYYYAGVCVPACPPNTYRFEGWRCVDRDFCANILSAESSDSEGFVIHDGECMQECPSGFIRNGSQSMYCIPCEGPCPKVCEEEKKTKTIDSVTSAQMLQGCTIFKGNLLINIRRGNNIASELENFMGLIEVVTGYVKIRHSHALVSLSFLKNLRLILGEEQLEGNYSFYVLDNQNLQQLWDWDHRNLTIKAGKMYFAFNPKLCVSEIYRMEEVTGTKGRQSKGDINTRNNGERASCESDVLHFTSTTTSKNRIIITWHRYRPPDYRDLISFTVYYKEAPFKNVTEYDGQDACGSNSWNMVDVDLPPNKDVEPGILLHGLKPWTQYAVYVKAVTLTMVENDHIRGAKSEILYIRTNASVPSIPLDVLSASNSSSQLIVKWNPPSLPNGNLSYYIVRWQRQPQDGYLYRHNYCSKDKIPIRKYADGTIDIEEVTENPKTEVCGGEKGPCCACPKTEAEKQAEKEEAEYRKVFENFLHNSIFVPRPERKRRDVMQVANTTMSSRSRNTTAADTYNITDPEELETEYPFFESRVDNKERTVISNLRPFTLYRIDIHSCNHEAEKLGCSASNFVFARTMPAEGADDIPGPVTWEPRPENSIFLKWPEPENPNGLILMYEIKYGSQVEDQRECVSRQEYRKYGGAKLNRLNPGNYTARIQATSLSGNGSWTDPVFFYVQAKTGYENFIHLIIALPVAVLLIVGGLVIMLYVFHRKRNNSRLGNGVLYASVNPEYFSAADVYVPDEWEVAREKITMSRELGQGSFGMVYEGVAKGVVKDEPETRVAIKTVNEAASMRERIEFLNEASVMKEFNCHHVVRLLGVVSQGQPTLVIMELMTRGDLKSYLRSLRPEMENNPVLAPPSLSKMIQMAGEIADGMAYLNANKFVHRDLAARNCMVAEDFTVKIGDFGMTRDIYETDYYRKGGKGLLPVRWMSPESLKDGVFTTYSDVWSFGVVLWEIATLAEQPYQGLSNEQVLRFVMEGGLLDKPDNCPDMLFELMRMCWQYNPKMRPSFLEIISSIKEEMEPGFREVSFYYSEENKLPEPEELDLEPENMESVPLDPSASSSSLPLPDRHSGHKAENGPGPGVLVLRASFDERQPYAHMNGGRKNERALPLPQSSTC

Turning to `COc1cc(C2=CCCN(C)C2)ccc1Nc1nc(Nc2ccccc2C(N)=O)c2cc[nH]c2n1` [Example 4, 2-[(2-{[2-(methyloxy)-4-(1-methyl-1,2,5,6-tetrahydro-3-pyridinyl)phenyl]amino}-1H-pyrrolo[2,3-d]pyrimidin-4-yl)amino]benzamide], the IC50 was under 100 nM in assay [1], 0.251 to 1 nM against ALK, 0.251 to 1 nM against human IR (hIR) and 0.251 to 1 nM at human IGF1R (hIGF1R).

On to `COc1cc(C2CCCN(C)C2)ccc1Nc1nc(Nc2ccccc2C(N)=O)c2cc[nH]c2n1` (stereo not drawn) [Example 5, 2-[(2-{[2-(methyloxy)-4-(1-methyl-3-piperidinyl)phenyl]amino}-1H-pyrrolo[2,3-d]pyrimidin-4-yl)amino]benzamide], for which the IC50 is under 100 nM in assay [1], 0.251 to 1 nM on ALK, 0.251 to 1 nM on human IR (hIR) and 0.251 to 1 nM at human IGF1R (hIGF1R).

As for `COc1cc(C2=CCCN(C(C)C)C2)ccc1Nc1nc(Nc2ccccc2C(N)=O)c2cc[nH]c2n1` [Example 6, 2-[(2-{[4-[1-(1-methylethyl)-1,2,5,6-tetrahydro-3-pyridinyl]-2-(methyloxy)phenyl]amino}-1H-pyrrolo[2,3-d]pyrimidin-4-yl)amino]benzamide], the IC50 is under 100 nM in assay [1], 0.251 to 1 nM on ALK, 0.251 to 1 nM on human IR (hIR) and 0.251 to 1 nM at human IGF1R (hIGF1R).

Turning to `CCCN1CCN(c2ccc(Nc3nc(Nc4ccccc4C(N)=O)c4cc[nH]c4n3)c(OC)c2)CC1` [Example 8, 2-[(2-{[2-(methyloxy)-4-(4-propyl-1-piperazinyl)phenyl]amino}-1H-pyrrolo[2,3-d]pyrimidin-4-yl)amino]benzamide], the IC50 in assay [1] is under 100 nM; at human IR (hIR), 0.251 to 1 nM; at human IGF1R (hIGF1R), 1.26 to 3.98 nM.

`CCCN1CCC=C(c2ccc(Nc3nc(Nc4cccc(F)c4C(N)=O)c4cc[nH]c4n3)c(C)c2)C1` [Example 40, 2-fluoro-6-[(2-{[2-methyl-4-(1-propyl-1,2,5,6-tetrahydro-3-pyridinyl)phenyl]amino}-1H-pyrrolo[2,3-d]pyrimidin-4-yl)amino]benzamide]: the IC50 was 100 to 500 nM in assay [1], 1.26 to 3.98 nM against ALK and 1.26 to 3.98 nM on human IGF1R (hIGF1R).

For the compound `COc1cc(C2CCCN(C)C2)ccc1Nc1nc(Nc2ccc(F)cc2C(N)=O)c2cc[nH]c2n1` (stereo not drawn) [Example 56, 5-fluoro-2-[(2-{[2-(methyloxy)-4-(1-methyl-3-piperidinyl)phenyl]amino}-1H-pyrrolo[2,3-d]pyrimidin-4-yl)amino]benzamide], the IC50 in assay [1] was under 100 nM; at ALK it was 0.251 to 1 nM; against human IR (hIR) it was 0.251 to 1 nM.

Take `CCOc1cc2c(cc1Nc1nc(Nc3cccc(F)c3C(=O)NC)c3cc[nH]c3n1)N(C(=O)CN(C)C)CCC2` [Example 133, 2-[(2-{[1-(N,N-dimethylglycyl)-6-(ethyloxy)-1,2,3,4-tetrahydro-7-quinolinyl]amino}-1H-pyrrolo[2,3-d]pyrimidin-4-yl)amino]-6-fluoro-N-methylbenzamide]: the IC50 at ALK, against human IR (hIR) and on human IGF1R (hIGF1R) was 1.26 to 3.98 nM throughout.

Turning to `CNC(=O)c1c(F)cccc1Nc1nc(Nc2cc3c(cc2OC)CCN3C(=O)CN(C)CCOC)nc2[nH]ccc12` [Example 169, 2-fluoro-N-methyl-6-[(2-{[1-{N-methyl-N-[2-(methyloxy)ethyl]glycyl}-5-(methyloxy)-2,3-dihydro-1H-indol-6-yl]amino}-1H-pyrrolo[2,3-d]pyrimidin-4-yl)amino]benzamide], the IC50 was 1.26 to 3.98 nM and 5.01 to 200 nM at ALK; 1.26 to 3.98 nM against human IR (hIR); 1.26 to 3.98 nM on human IGF1R (hIGF1R).

Take `COCCN(C)CC(=O)N1CCc2cc(OC)c(Nc3nc(Nc4cccc(F)c4C(N)=O)c4cc[nH]c4n3)cc21` [Example 170, 2-fluoro-6-[(2-{[1-{N-methyl-N-[2-(methyloxy)ethyl]glycyl}-5-(methyloxy)-2,3-dihydro-1H-indol-6-yl]amino}-1H-pyrrolo[2,3-d]pyrimidin-4-yl)amino]benzamide]: the IC50 on ALK is 1.26 to 3.98 nM; against human IR (hIR), 0.251 to 1 nM; on human IGF1R (hIGF1R), 0.251 to 1 nM.

For `COc1cc2c(cc1Nc1nc(Nc3cccc4c3C(=O)NC4)c3cc[nH]c3n1)N(C(=O)CN1CCCC1)CCC2` [Example 201, 7-[(2-{[6-(methyloxy)-1-(1-pyrrolidinylacetyl)-1,2,3,4-tetrahydro-7-quinolinyl]amino}-1H-pyrrolo[2,3-d]pyrimidin-4-yl)amino]-2,3-dihydro-1H-isoindol-1-one], the IC50 against ALK, against human IR (hIR) and on human IGF1R (hIGF1R) was 0.251 to 1 nM throughout.

As for `CNC(=O)c1c(F)cccc1Nc1nc(Nc2cc3c(cc2OC)CCN(CCF)C3)nc2[nH]ccc12` [Example 234, 2-fluoro-6-[(2-{[2-(2-fluoroethyl)-6-(methyloxy)-1,2,3,4-tetrahydro-7-isoquinolinyl]amino}-1H-pyrrolo[2,3-d]pyrimidin-4-yl)amino]-N-methylbenzamide], the IC50 at ALK is 0.251 to 1 nM; on human IR (hIR), 1.26 to 3.98 nM; at human IGF1R (hIGF1R), 5.01 to 200 nM.
